{"source": "patent US8138118B2", "about": "“Use of hydroxyaromatics as safeners” (Bayer CropScience AG, priority 2003, dated 2012)", "assay_type_in_all_cases": "in vivo", "key": {"[1]": {"system": "Zea mays (corn), cv. 'Lorenzo'", "assay": "Post-emergence application of herbicide and safener by the tank mix method, crop damage", "details": "for % damage in ZEAMA: four weeks; for Safener action as % damage reduction in crop plants: ZEAMA, safener 250 g a.i./ha + herbicide H2 40 g a.i./ha", "description": "(§1) Seeds of various crop plants and weed species were sown in sandy loam soil in round plastic pots of a diameter of 13 cm and covered with a layer of sandy loam of a thickness of about 1 cm. The pots were placed in a greenhouse under favorable growth conditions for a period of about two to three weeks, allowing the plants to reach a growth stage of 2 to 4 leaves. The herbicides in the form of liquid (for example emulsion concentrates) or dry (for example water-dispersible powders) formulations were mixed with a standard additive (based on rapeseed oil methyl ester), diluted with deionized water to the required concentrations and applied to the green parts of the plants and the uncovered part of the soil surface with a spray bar using a water application rate of 300 liters per hectare. In the experiment shown below, safener and the herbicide foramsulfuron were in each case used as 20 percent strength water-dispersible powder (results see table 1.2.1). The pots were placed in a greenhouse under favorable growth conditions. Visual scoring of the herbicidal action was carried out four weeks after the herbicide application. Evaluation was carried out on a percentage basis by comparison with untreated control plants (0%=no noticeable effect compared with the untreated plant, 100%=treated plant dies)."}, "Amaranthus retroflexus": {"system": "Amaranthus retroflexus", "assay": "Post-emergence application of herbicide and safener by the tank mix method, herbicidal action on weed", "details": "four weeks", "description": "as §1"}, "Setaria viridis [2]": {"system": "Setaria viridis", "assay": "Post-emergence application of herbicide and safener by the tank mix method, herbicidal action on weed", "details": "four weeks", "description": "as §1"}, "[3]": {"system": "Zea mays (corn), cv. 'Lorenzo'", "assay": "Post-emergence application of herbicide after seed dressing with safener, crop damage", "details": "for % damage in ZEAMA: four weeks; for Safener action as % damage reduction in crop plants: ZEAMA", "method": "The number of crop plant seeds required for each application rate of safener was calculated. Sufficient seeds were weighed out into glass bottles having a screw-on lid. The volume of the glass bottles was approximately twice that of the seeds weighed out. The safeners were formulated as 20 percent strength water-dispersible powders. These formulations were weighed out to give the required application rates (g of a.i./kg of seed). The samples were added to the seed in the glass containers, and sufficient water to form a suitable seed dressing was then added. The glass bottles were closed and then mounted in an overhead shaker (which turns the bottles at moderate speed for a period of up to one hour) so that the seeds were uniformly covered with the seed dressing. The bottles were opened and the seed was ready for use in pre-emergence or post-emergence experiments, as described below. The seeds treated with safener and untreated seeds were sown in sandy loam soil in round plastic pots of a diameter of 13 cm and covered with a layer of sandy loam of a thickness of about 1 cm. The pots were placed in a greenhouse under favorable growth conditions for a period of about two to three weeks, allowing the plants to reach a growth stage of 2 to 4 leaves. The herbicides in the form of liquid (for example emulsion concentrates) or dry (for example water-dispersible powders) formulations were mixed with a standard additive (based on rapeseed oil methyl ester), diluted with deionized water to the required concentrations and applied to the green parts of the plants and the uncovered part of the soil surface with a spray bar using a water application rate of 300 liters per hectare. In the experiment shown below, the herbicide foramsulfuron was used as 20 percent strength water-dispersible powder (results see table 2.3.1). The pots were placed in a greenhouse under favorable growth conditions. Visual scoring of the herbicidal action was carried out four weeks after the herbicide application. Evaluation was carried out on a percentage base by comparison with untreated control plants (0%=no noticeable effect compared with the untreated plant, 100%=treated plant dies)."}, "[4]": {"system": "Zea mays (corn), cv. 'Lorenzo'", "assay": "Pre-emergence application of herbicide and safener by the tank mix method, crop damage", "details": "for Safener action as % damage reduction in crop plants: ZEAMA, safener 250 g a.i./ha + herbicide H1 100 g a.i./ha", "method": "(§2) Seeds of various crop plants and weed species were sown in sandy loam soil in round plastic pots of a diameter of 13 cm and covered with a layer of sandy loam of a thickness of about 1 cm. Herbicides and safeners in the form of liquid (for example emulsion concentrates) or dry (for example water-dispersible powders) formulations were diluted with deionized water to the required concentration and applied to the surface of the soil with a spray bar using a water application rate of 300 liters per hectare. In the experiment shown below, the safeners were used as 20 percent strength water-dispersible powders and the herbicide isoxaflutole was used as an aqueous suspension concentrate (see table 1.1.1). The pots were placed in a greenhouse under favorable growth conditions. Visual scoring of the herbicidal action was carried out four weeks after the herbicide application. Evaluation was carried out on a percentage basis by comparison with untreated control plants (0%=no noticeable effect compared with the untreated plant, 100%=treated plant dies)."}, "Chenopodium album": {"system": "Chenopodium album", "assay": "Pre-emergence application of herbicide and safener by the tank mix method, herbicidal action on weed", "details": "four weeks", "method": "as §2"}, "Setaria viridis [5]": {"system": "Setaria viridis", "assay": "Pre-emergence application of herbicide and safener by the tank mix method, herbicidal action on weed", "details": "four weeks", "method": "as §2"}, "[6]": {"system": "Glycine max (soybean), cv. 'Lambert'", "assay": "Pre-emergence application of herbicide after seed dressing with safener, crop damage", "details": "for Safener action as % damage reduction in crop plants: GLXMA; for % damage in GLXMA: four weeks", "method": "(§3) The number of crop plant seeds required for each application rate of safener was calculated. Sufficient seeds were weighed out into glass bottles having a screw-on lid. The volume of the glass bottles was approximately twice that of the seeds weighed out. The safeners were formulated as 20 percent strength water-dispersible powders. These formulations were weighed out to give the required application rates (g of a.i./kg of seed). The samples were added to the seed in the glass containers, and sufficient water to form a suitable seed dressing was then added. The glass bottles were closed and then mounted in an overhead shaker (which turns the bottles at moderate speed for a period of up to one hour) so that the seeds were uniformly covered with the seed dressing. The bottles were opened and the seed was ready for use in pre-emergence or post-emergence experiments, as described below. The seeds which had been treated with safener and untreated seeds as controls were sown in sandy loam soil in round plastic pots of a diameter of 13 cm and covered with a layer of sandy loam of a thickness of about 1 cm. The herbicides in the form of liquid (for example emulsion concentrates) or dry (for example water-dispersible powders) formulations were diluted with deionized water to the required concentrations and applied to the surface of the soil with a spray bar using a water application rate of 300 liters per hectare. In the two experiments shown below (results see tables 2.2.1 and 2.2.2), the herbicide isoxaflutole was used as an aqueous suspension concentrate. The pots were placed in a greenhouse under favorable growth conditions. Visual scoring of the herbicidal action was carried out four weeks after the herbicide application. Evaluation was carried out on a percentage basis by comparison with untreated control plants (0%=no noticeable effect compared with the untreated plant, […])."}, "[7]": {"system": "Zea mays (corn), cv. 'Lorenzo'", "assay": "Pre-emergence application of herbicide after seed dressing with safener, crop damage", "details": "for Safener action as % damage reduction in crop plants: ZEAMA; for % damage in ZEAMA: four weeks", "method": "as §3"}, "[8]": {"details": "herbicide H2 40 g a.i./ha alone, no safener, post-emergence"}, "[9]": {"details": "safener 250 g a.i./ha + herbicide H1 (isoxaflutole) 100 g a.i./ha, pre-emergence tank mix, visual scoring four weeks after application"}, "[10]": {"details": "safener 250 g a.i./ha + herbicide H1 100 g a.i./ha, pre-emergence tank mix"}, "[11]": {"details": "safener 250 g a.i./ha + herbicide H2 (foramsulfuron) 40 g a.i./ha, post-emergence tank mix"}, "[12]": {"details": "safener 250 g a.i./ha + herbicide H2 40 g a.i./ha, post-emergence tank mix"}, "[13]": {"details": "seed dressing with safener 1 g a.i./kg of seed, herbicide H1 100 g a.i./ha pre-emergence"}, "[14]": {"details": "seed dressing with safener 1 g a.i./kg of seed, then herbicide H1 100 g a.i./ha pre-emergence"}, "[15]": {"details": "seed dressing with safener 1 g a.i./kg of seed, herbicide H2 40 g a.i./ha post-emergence"}, "[16]": {"details": "seed dressing with safener 1 g a.i./kg of seed, then herbicide H2 40 g a.i./ha post-emergence"}, "[17]": {"details": "herbicide H1 100 g a.i./ha alone, no safener, pre-emergence"}, "[18]": {"details": "herbicide H1 100 g a.i./ha pre-emergence, untreated seeds (no safener)"}}}
{"smiles": "COc1cc(OC)nc(NC(=O)NS(=O)(=O)c2cc(NC=O)ccc2C(=O)N(C)C)n1", "note": "[Herbicide H2, foramsulfuron, reference compound]", "values": [{"measurement": "% damage in ZEAMA", "setting": "[1]; [8]", "result": 39, "unit": "%"}, {"measurement": "Herbicidal action as % damage in AMARE", "setting": "Amaranthus retroflexus; [8]", "result": 91, "unit": "%"}, {"measurement": "Herbicidal action as % damage in SETVI", "setting": "Setaria viridis [2]; [8]", "result": 93, "unit": "%"}, {"measurement": "% damage in ZEAMA", "setting": "[3]; herbicide H2 40 g a.i./ha post-emergence, untreated seeds (no safener)", "result": 37, "unit": "%"}]}
{"smiles": "O=C(O)c1ccc(F)cc1O", "note": "[Comp. 253, 4-fluorosalicylic acid]", "values": [{"measurement": "Safener action as % damage reduction in crop plants", "setting": "[4]; pre-emergence tank mix", "result": 83, "unit": "%"}, {"measurement": "% damage in ZEAMA", "setting": "[4]; [9]", "result": 4, "unit": "%"}, {"measurement": "Herbicidal action in CHEAL (in %)", "setting": "Chenopodium album; [10]", "result": 90, "unit": "%"}, {"measurement": "Herbicidal action in SETVI (in %)", "setting": "Setaria viridis [5]; [10]", "result": 93, "unit": "%"}, {"measurement": "Safener action as % damage reduction in crop plants", "setting": "[1]; post-emergence tank mix", "result": 82, "unit": "%"}, {"measurement": "% damage in ZEAMA", "setting": "[1]; [11]", "result": 7, "unit": "%"}, {"measurement": "Herbicidal action as % damage in AMARE", "setting": "Amaranthus retroflexus; [12]", "result": 91, "unit": "%"}, {"measurement": "Herbicidal action as % damage in SETVI", "setting": "Setaria viridis [2]; [12]", "result": 93, "unit": "%"}, {"measurement": "Safener action as % damage reduction in crop plants", "setting": "[6]; [13]", "result": 63, "unit": "%"}, {"measurement": "% damage in GLXMA", "setting": "[6]; [14]", "result": 32, "unit": "%"}, {"measurement": "Safener action as % damage reduction in crop plants", "setting": "[7]; [13]", "result": 69, "unit": "%"}, {"measurement": "% damage in ZEAMA", "setting": "[7]; [14]", "result": 9, "unit": "%"}, {"measurement": "Safener action as % damage reduction in crop plants", "setting": "[3]; [15]", "result": 78, "unit": "%"}, {"measurement": "% damage in ZEAMA", "setting": "[3]; [16]", "result": 8, "unit": "%"}]}
{"smiles": "O=C(O)c1ccc(O)cc1O", "note": "[Comp. 588, 4-hydroxysalicylic acid]", "values": [{"measurement": "Safener action as % damage reduction in crop plants", "setting": "[4]; pre-emergence tank mix", "result": 61, "unit": "%"}, {"measurement": "% damage in ZEAMA", "setting": "[4]; [9]", "result": 9, "unit": "%"}, {"measurement": "Herbicidal action in CHEAL (in %)", "setting": "Chenopodium album; [10]", "result": 92, "unit": "%"}, {"measurement": "Herbicidal action in SETVI (in %)", "setting": "Setaria viridis [5]; [10]", "result": 97, "unit": "%"}, {"measurement": "Safener action as % damage reduction in crop plants", "setting": "[1]; post-emergence tank mix", "result": 74, "unit": "%"}, {"measurement": "% damage in ZEAMA", "setting": "[1]; [11]", "result": 10, "unit": "%"}, {"measurement": "Herbicidal action as % damage in AMARE", "setting": "Amaranthus retroflexus; [12]", "result": 95, "unit": "%"}, {"measurement": "Herbicidal action as % damage in SETVI", "setting": "Setaria viridis [2]; [12]", "result": 95, "unit": "%"}, {"measurement": "Safener action as % damage reduction in crop plants", "setting": "[6]; [13]", "result": 69, "unit": "%"}, {"measurement": "% damage in GLXMA", "setting": "[6]; [14]", "result": 27, "unit": "%"}, {"measurement": "Safener action as % damage reduction in crop plants", "setting": "[7]; [13]", "result": 59, "unit": "%"}, {"measurement": "% damage in ZEAMA", "setting": "[7]; [14]", "result": 12, "unit": "%"}, {"measurement": "Safener action as % damage reduction in crop plants", "setting": "[3]; [15]", "result": 73, "unit": "%"}, {"measurement": "% damage in ZEAMA", "setting": "[3]; [16]", "result": 10, "unit": "%"}]}
{"smiles": "CS(=O)(=O)c1cc(C(F)(F)F)ccc1C(=O)c1cnoc1C1CC1", "note": "[Herbicide H1, isoxaflutole, reference compound]", "values": [{"measurement": "% damage in ZEAMA", "setting": "[4]; herbicide H1 100 g a.i./ha alone, no safener, pre-emergence, four weeks", "result": 23, "unit": "%"}, {"measurement": "Herbicidal action in CHEAL (in %)", "setting": "Chenopodium album; [17]", "result": 90, "unit": "%"}, {"measurement": "Herbicidal action in SETVI (in %)", "setting": "Setaria viridis [5]; [17]", "result": 92, "unit": "%"}, {"measurement": "% damage in GLXMA", "setting": "[6]; [18]", "result": 87, "unit": "%"}, {"measurement": "% damage in ZEAMA", "setting": "[7]; [18]", "result": 29, "unit": "%"}]}
